In ChEMBL document CHEMBL4828725 (Eur J Med Chem, 2021):
pIC50: −log10 of the molar value.

Tests used:
Penicillium decumbens = assay: Inhibition of Penicillium decumbens alpha-L-rhamnosidase using p-nitrophenyl glycoside as substrate assessed as release of p-nitrophenol at 1000 uM measured by spectrometric assay relative to control
[1] = target: T1, Tissue alpha-L-fucosidase (Bos taurus, UniProt Q2KIM0); assay: Inhibition of bovine kidney alpha-L-fucosidase using p-nitrophenyl glycoside as substrate assessed as release of p-nitrophenol measured by spectrometric assay
T1 sequence (Q2KIM0 whole entry): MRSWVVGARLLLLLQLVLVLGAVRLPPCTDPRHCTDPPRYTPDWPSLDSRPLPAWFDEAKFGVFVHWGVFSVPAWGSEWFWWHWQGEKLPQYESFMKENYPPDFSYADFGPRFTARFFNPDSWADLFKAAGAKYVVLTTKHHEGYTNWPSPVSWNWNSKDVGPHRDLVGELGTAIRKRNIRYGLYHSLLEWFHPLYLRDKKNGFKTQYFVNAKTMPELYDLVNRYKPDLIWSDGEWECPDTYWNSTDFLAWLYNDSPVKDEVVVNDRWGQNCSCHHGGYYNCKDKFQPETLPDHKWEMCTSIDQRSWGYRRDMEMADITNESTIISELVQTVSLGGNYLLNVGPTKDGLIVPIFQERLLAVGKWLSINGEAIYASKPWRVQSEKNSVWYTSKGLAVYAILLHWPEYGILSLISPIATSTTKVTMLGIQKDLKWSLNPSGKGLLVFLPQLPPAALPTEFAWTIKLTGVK

[2] = Inhibition of bovine liver beta-glucosidase using p-nitrophenyl glycoside as substrate assessed as release of p-nitrophenol measured by spectrometric assay; set-up: species or system Bos taurus
Prunus dulcis = assay: Inhibition of almond beta-glucosidase using p-nitrophenyl glycoside as substrate assessed as release of p-nitrophenol at 1000 uM measured by spectrometric assay relative to control
Bos taurus [3] = organism: Bos taurus; assay: Inhibition of bovine liver beta-glucosidase using p-nitrophenyl glycoside as substrate assessed as release of p-nitrophenol at 1000 uM measured by spectrometric assay relative to control; type: tissue-based
Helix pomatia = assay: Inhibition of snail beta-mannosidase using p-nitrophenyl glycoside as substrate assessed as release of p-nitrophenol at 1000 uM measured by spectrometric assay relative to control
Sus scrofa = organism: Sus scrofa; assay: Inhibition of porcine kidney alpha-trehalase using p-nitrophenyl glycoside as substrate assessed as release of p-nitrophenol at 1000 uM measured by spectrometric assay relative to control
Beta-glucuronidase = Beta-glucuronidase (Escherichia coli (strain K12), UniProt P05804); assay: Inhibition of Escherichia coli beta-glucuronidase using p-nitrophenyl glycoside as substrate assessed as release of p-nitrophenol measured by spectrometric assay
Sequence of Beta-glucuronidase (P05804 whole entry): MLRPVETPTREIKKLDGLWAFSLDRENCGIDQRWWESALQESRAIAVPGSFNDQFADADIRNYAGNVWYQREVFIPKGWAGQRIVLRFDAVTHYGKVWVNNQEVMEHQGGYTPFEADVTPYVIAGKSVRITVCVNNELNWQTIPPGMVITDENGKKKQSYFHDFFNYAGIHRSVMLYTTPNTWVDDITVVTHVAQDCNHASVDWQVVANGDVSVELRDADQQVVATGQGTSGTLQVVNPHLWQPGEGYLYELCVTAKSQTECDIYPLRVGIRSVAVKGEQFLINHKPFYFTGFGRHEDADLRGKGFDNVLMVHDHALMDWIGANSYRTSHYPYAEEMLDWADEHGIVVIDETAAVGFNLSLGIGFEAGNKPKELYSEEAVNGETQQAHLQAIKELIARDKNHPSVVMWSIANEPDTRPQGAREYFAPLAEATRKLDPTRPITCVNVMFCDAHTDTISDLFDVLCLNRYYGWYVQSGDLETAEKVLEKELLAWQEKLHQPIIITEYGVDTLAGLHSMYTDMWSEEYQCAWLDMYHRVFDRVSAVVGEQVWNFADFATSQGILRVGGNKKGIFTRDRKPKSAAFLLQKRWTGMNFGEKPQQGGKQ

[4] = target: Beta-glucuronidase (Escherichia coli (strain K12)) (UniProt P05804); assay: Inhibition of Escherichia coli beta-glucuronidase using p-nitrophenyl glycoside as substrate assessed as release of p-nitrophenol at 1000 uM measured by spectrometric assay relative to control
Sequence of Beta-glucuronidase (Escherichia coli (strain K12)) (P05804 whole entry, looked up): as the sequence (P05804 whole entry) above

[5] = Inhibition of rice alpha-glucosidase using p-nitrophenyl glycoside as substrate assessed as release of p-nitrophenol measured by spectrometric assay; set-up: species or system Oryza sativa; settings: read-out: IC50
[6] = Inhibition of Aspergillus niger amyloglucosidase using p-nitrophenyl glycoside as substrate assessed as release of p-nitrophenol measured by spectrometric assay
[7] = Inhibition of jack bean alpha-mannosidase using p-nitrophenyl glycoside as substrate assessed as release of p-nitrophenol measured by spectrometric assay; set-up: species or system Canavalia ensiformis
[8] = target: T2, Alpha-mannosidase (Canavalia ensiformis) (UniProt C0HJB3); assay: Inhibition of jack bean alpha-mannosidase using p-nitrophenyl glycoside as substrate assessed as release of p-nitrophenol at 1000 uM measured by spectrometric assay relative to control
T2 sequence (whole entry): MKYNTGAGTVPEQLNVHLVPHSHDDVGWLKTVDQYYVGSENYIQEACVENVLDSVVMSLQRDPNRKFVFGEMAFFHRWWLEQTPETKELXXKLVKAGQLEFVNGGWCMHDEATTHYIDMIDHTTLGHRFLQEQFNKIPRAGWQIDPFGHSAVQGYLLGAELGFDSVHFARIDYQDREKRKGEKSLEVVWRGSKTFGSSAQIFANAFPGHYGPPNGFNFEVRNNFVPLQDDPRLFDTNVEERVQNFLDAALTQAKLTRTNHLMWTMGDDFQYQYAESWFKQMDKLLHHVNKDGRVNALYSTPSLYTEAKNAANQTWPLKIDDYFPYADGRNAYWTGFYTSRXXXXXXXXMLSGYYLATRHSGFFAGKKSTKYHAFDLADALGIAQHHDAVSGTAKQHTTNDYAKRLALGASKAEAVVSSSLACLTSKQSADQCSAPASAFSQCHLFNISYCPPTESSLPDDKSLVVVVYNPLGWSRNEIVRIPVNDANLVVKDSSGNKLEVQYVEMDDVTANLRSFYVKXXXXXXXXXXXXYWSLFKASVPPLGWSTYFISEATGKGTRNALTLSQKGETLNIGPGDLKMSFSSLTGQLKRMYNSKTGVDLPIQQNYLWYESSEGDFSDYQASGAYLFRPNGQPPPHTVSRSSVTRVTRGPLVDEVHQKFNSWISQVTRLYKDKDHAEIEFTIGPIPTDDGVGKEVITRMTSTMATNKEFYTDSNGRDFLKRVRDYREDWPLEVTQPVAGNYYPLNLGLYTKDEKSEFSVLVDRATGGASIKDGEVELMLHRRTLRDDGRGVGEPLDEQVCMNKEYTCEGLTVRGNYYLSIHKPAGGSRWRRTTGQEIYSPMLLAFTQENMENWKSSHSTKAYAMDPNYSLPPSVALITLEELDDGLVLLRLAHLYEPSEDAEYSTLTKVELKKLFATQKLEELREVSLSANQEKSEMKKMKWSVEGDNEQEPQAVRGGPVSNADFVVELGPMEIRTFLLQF

[9] = target: T3, Tissue alpha-L-fucosidase (Bos taurus) (UniProt Q2KIM0); assay: Inhibition of bovine kidney alpha-L-fucosidase using p-nitrophenyl glycoside as substrate assessed as release of p-nitrophenol at 1000 uM measured by spectrometric assay relative to control; type: tissue-based
T3 sequence (whole entry): T1 sequence (Q2KIM0 whole entry)

[10] = Inhibition of bovine liver beta-galactosidase using p-nitrophenyl glycoside as substrate assessed as release of p-nitrophenol measured by spectrometric assay; type: tissue-based, Bos taurus
Aspergillus niger = assay: Inhibition of Aspergillus niger amyloglucosidase using p-nitrophenyl glycoside as substrate assessed as release of p-nitrophenol at 1000 uM measured by spectrometric assay relative to control
Bos taurus [11] = organism: Bos taurus; assay: Inhibition of bovine liver beta-galactosidase using p-nitrophenyl glycoside as substrate assessed as release of p-nitrophenol at 1000 uM measured by spectrometric assay relative to control
[12] = target: T4, Sucrase-isomaltase, intestinal (Rattus norvegicus, UniProt P23739); assay: Inhibition of rat intestinal isomaltase using p-nitrophenyl glycoside as substrate assessed as release of p-nitrophenol measured by spectrometric assay; settings: read-out: IC50
T4 sequence (P23739 1-1013 limits assumed): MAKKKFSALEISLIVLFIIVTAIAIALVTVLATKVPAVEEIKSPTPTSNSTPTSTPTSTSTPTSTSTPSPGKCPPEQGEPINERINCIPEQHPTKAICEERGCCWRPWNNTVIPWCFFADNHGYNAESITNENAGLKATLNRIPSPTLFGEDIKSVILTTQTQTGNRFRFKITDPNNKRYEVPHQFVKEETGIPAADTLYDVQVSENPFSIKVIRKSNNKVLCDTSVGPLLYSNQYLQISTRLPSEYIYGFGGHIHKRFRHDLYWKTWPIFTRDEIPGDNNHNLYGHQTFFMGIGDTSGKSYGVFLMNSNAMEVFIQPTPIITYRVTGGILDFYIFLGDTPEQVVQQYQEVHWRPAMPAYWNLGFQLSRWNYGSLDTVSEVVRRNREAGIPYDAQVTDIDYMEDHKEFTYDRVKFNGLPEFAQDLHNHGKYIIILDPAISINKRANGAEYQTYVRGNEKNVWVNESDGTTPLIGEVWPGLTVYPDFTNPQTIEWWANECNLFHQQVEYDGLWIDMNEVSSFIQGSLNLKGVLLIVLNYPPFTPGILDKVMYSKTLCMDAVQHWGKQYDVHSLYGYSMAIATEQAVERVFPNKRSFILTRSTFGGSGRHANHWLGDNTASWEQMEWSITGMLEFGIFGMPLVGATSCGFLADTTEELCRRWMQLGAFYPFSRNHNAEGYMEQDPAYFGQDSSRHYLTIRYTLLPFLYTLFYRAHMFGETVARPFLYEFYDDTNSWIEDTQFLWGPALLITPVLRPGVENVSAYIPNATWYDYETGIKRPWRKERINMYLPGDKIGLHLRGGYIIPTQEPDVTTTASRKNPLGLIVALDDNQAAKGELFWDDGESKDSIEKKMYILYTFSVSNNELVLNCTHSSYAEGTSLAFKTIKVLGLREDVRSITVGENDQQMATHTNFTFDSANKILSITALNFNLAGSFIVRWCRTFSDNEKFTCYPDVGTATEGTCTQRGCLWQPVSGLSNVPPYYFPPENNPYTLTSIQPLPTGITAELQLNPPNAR
T4 sequence (P23739 1014-1841 limits assumed): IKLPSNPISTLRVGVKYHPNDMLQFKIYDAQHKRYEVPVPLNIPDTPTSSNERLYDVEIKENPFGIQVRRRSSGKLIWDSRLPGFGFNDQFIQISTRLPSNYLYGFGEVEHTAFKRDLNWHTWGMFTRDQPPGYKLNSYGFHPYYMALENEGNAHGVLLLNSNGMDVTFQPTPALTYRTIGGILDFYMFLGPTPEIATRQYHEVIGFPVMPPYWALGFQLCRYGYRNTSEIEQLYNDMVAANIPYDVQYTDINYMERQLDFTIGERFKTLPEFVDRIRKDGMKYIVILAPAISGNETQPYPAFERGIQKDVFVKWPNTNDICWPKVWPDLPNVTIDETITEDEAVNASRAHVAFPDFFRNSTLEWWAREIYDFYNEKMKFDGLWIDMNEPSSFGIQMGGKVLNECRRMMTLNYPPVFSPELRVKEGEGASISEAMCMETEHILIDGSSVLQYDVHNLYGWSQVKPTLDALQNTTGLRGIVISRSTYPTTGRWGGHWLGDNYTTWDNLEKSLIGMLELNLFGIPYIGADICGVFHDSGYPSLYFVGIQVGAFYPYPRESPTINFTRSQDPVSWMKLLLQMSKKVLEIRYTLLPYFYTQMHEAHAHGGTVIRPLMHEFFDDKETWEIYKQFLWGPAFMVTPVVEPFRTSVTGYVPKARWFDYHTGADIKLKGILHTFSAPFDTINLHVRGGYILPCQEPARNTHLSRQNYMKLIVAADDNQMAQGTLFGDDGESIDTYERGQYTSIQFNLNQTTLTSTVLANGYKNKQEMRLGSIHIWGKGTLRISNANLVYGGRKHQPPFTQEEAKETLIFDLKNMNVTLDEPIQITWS

[13] = target: T4, Sucrase-isomaltase, intestinal; assay: Inhibition of rat intestinal sucrase using p-nitrophenyl glycoside as substrate assessed as release of p-nitrophenol measured by spectrometric assay; settings: read-out: IC50
Alpha-galactosidase = Alpha-galactosidase (Coffea arabica, UniProt Q42656); assay: Inhibition of coffee beans alpha-galactosidase using p-nitrophenyl glycoside as substrate assessed as release of p-nitrophenol measured by spectrometric assay; settings: read-out: IC50
Sequence of Alpha-galactosidase (Q42656 whole entry): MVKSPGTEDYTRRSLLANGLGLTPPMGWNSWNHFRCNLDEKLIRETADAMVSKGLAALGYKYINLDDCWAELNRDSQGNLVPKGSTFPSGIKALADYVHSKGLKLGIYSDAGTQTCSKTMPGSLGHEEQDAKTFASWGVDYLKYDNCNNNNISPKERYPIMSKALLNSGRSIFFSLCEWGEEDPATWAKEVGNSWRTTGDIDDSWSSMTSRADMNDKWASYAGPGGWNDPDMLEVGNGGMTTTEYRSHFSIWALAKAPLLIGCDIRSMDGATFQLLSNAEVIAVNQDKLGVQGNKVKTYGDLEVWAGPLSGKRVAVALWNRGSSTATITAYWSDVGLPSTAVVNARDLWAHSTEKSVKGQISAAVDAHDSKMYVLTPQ

[14] = Inhibition of Penicillium decumbens alpha-L-rhamnosidase using p-nitrophenyl glycoside as substrate assessed as release of p-nitrophenol measured by spectrometric assay
[15] = Inhibition of rat intestinal maltase using maltose as substrate assessed as release of D-glucose measured by spectrometric assay
[16] = Inhibition of almond beta-glucosidase using p-nitrophenyl glycoside as substrate assessed as release of p-nitrophenol measured by spectrometric assay; set-up: species or system Prunus dulcis
[17] = Inhibition of porcine kidney alpha-trehalase using p-nitrophenyl glycoside as substrate assessed as release of p-nitrophenol measured by spectrometric assay; set-up: species or system Sus scrofa
[18] = Inhibition of snail beta-mannosidase using p-nitrophenyl glycoside as substrate assessed as release of p-nitrophenol measured by spectrometric assay; set-up: species or system Helix pomatia

In the case of `CCCCC[C@]1(CO)NC[C@H](O)[C@@H](O)[C@@H]1O.Cl`, the inhibition (Penicillium decumbens) was 0%, the IC50 [1] was “Not Active” and the IC50 [2] was “Not Active”. It also gave an inhibition (Prunus dulcis) of 18.8%, an inhibition (Bos taurus [3]) of 8% and an inhibition (Helix pomatia) of 4%. The inhibition (Sus scrofa) was 10.6%, the IC50 (Beta-glucuronidase) was “Not Active” and the inhibition [4] was 10.8%. The pIC50 [5] was 7.17, the IC50 [6] was “Not Active” and the IC50 [7] was “Not Active”. For the same compound, the inhibition [8] was 5.5%, the inhibition [9] was 12.4% and the IC50 [10] was “Not Active”. For the same compound, the inhibition (Aspergillus niger) was 0.83%, the inhibition (Bos taurus [11]) was 16.1% and the pIC50 [12] was 6.15. For the same compound, the pIC50 [13] was 6.64, the pIC50 (Alpha-galactosidase) was 4.08 and the IC50 [14] was “Not Active”. The pIC50 [15] was 7.64, the IC50 [16] was “Not Active” and the IC50 [17] was “Not Active”. The IC50 [18] was “Not Active”.
For `CCCCCC[C@]1(CO)NC[C@H](O)[C@@H](O)[C@@H]1O.Cl`, the inhibition (Penicillium decumbens) was 0.6%, the IC50 [1] was “Not Active” and the IC50 [2] was “Not Active”. It also gave an inhibition (Prunus dulcis) of 11.3%, an inhibition (Bos taurus [3]) of 10.8% and an inhibition (Helix pomatia) of 0%. For the same compound, the inhibition (Sus scrofa) was 11.7%, the IC50 (Beta-glucuronidase) was “Not Active” and the inhibition [4] was 21.1%. The pIC50 [5] was 7.43, the IC50 [6] was “Not Active” and the IC50 [7] was “Not Active”. The inhibition [8] was 5.5%, the inhibition [9] was 4.3% and the IC50 [10] was “Not Active”. It also gave an inhibition (Aspergillus niger) of 5.4%, an inhibition (Bos taurus [11]) of 15.5% and a pIC50 [12] of 6.26. The pIC50 [13] was 6.85, the pIC50 (Alpha-galactosidase) was 4.12 and the IC50 [14] was “Not Active”. For the same compound, the pIC50 [15] was 7.47, the IC50 [16] was “Not Active” and the IC50 [17] was “Not Active”. For the same compound, the IC50 [18] was “Not Active”.
With `CCCCCCC[C@]1(CO)NC[C@H](O)[C@@H](O)[C@@H]1O.Cl` the inhibition (Penicillium decumbens) was 0%, the IC50 [1] was “Not Active” and the IC50 [2] was “Not Active”. For the same compound, the inhibition (Prunus dulcis) was 36.3%, the inhibition (Bos taurus [3]) was 20.5% and the inhibition (Helix pomatia) was 8.5%. For the same compound, the inhibition (Sus scrofa) was 12.9%, the pIC50 (Beta-glucuronidase; read-out: IC50) was 4.55 and the pIC50 [5] was 7.30. The IC50 [6] was “Not Active”, the IC50 [7] was “Not Active” and the inhibition [8] was 17.3%. For the same compound, the inhibition [9] was 45.9%, the IC50 [10] was “Not Active” and the inhibition (Aspergillus niger) was 12.2%. It also gave an inhibition (Bos taurus [11]) of 29%, a pIC50 [12] of 6.26 and a pIC50 [13] of 6.64. The pIC50 (Alpha-galactosidase) was 3.96, the IC50 [14] was “Not Active” and the pIC50 [15] was 7.44. For the same compound, the IC50 [16] was “Not Active”, the IC50 [17] was “Not Active” and the IC50 [18] was “Not Active”.
With `CCCCCCCC[C@]1(CO)NC[C@H](O)[C@@H](O)[C@@H]1O.Cl` the inhibition (Penicillium decumbens) was 5.7%, the IC50 [1] was “Not Active” and the IC50 [2] was “Not Active”. It also gave an inhibition (Prunus dulcis) of 15.7%, an inhibition (Bos taurus [3]) of 14.3% and an inhibition (Helix pomatia) of 0.5%. For the same compound, the inhibition (Sus scrofa) was 23%, the IC50 (Beta-glucuronidase) was “Not Active” and the inhibition [4] was 12%. For the same compound, the pIC50 [5] was 7.54, the IC50 [6] was “Not Active” and the IC50 [7] was “Not Active”. The inhibition [8] was 4.6%, the inhibition [9] was 6.6% and the IC50 [10] was “Not Active”. For the same compound, the inhibition (Aspergillus niger) was 5.9%, the inhibition (Bos taurus [11]) was 35.2% and the pIC50 [12] was 6.47. For the same compound, the pIC50 [13] was 6.92, the pIC50 (Alpha-galactosidase) was 4.01 and the IC50 [14] was “Not Active”. For the same compound, the pIC50 [15] was 7.72, the IC50 [16] was “Not Active” and the IC50 [17] was “Not Active”. The IC50 [18] was “Not Active”.
For `CCCCCCCCCCCC[C@]1(CO)NC[C@H](O)[C@@H](O)[C@@H]1O.Cl`, the inhibition (Penicillium decumbens) was 0.3%, the IC50 [1] was “Not Active” and the IC50 [2] was “Not Active”. The inhibition (Prunus dulcis) was 10%, the inhibition (Bos taurus [3]) was 25% and the inhibition (Helix pomatia) was 1.5%. For the same compound, the inhibition (Sus scrofa) was 4.8%, the IC50 (Beta-glucuronidase) was “Not Active” and the inhibition [4] was 16.5%. For the same compound, the pIC50 [5] was 7.62, the IC50 [6] was “Not Active” and the IC50 [7] was “Not Active”. For the same compound, the inhibition [8] was 7.9%, the inhibition [9] was 16% and the IC50 [10] was “Not Active”. It also gave an inhibition (Aspergillus niger) of 10.7%, an inhibition (Bos taurus [11]) of 48.4% and a pIC50 [12] of 5.11. The pIC50 [13] was 5.92, the pIC50 (Alpha-galactosidase) was 5.00 and the IC50 [14] was “Not Active”. For the same compound, the pIC50 [15] was 7.15, the IC50 [16] was “Not Active” and the IC50 [17] was “Not Active”. The IC50 [18] was “Not Active”.
